The values that follow come from paper PMC7534311, “Sulphonamide inhibition profile of Staphylococcus aureus β-carbonic anhydrase” (Journal of Enzyme Inhibition and Medicinal Chemistry, 2020).

The first experiment has as its target hCA II.
Experiment: not given
As to conditions: human recombinant isozyme, Table 2; cited from earlier work.
For the compound `NS(=O)(=O)NCCNc1nonc1C(=NO)Nc1ccc(F)c(Br)c1` [EPA, epacadostat], the Ki was 917 nM.

Take `NC(N)=Nc1nc(CSCCC(N)=NS(N)(=O)=O)cs1` [FAM, famotidine]: the Ki was 58 nM.

In another experiment the target is T1, SauBCA (β-carbonic anhydrase from Staphylococcus aureus) (Staphylococcus aureus, UniProt A0AAJ4SIE8).
T1 sequence (A0AAJ4SIE8 1-189): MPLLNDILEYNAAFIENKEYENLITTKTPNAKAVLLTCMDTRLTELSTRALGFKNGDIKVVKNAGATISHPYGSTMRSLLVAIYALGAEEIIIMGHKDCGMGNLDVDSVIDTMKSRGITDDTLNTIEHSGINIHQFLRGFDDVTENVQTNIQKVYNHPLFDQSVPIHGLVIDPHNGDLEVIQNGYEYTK
Description: Stopped-flow CO2 hydration inhibition assay, SauBCA. The class given is biochemical. As to conditions: Ki SauBCA, recombinant SauBCA, stopped-flow CO2 hydration, mean from three assays, errors ±5–10%. The procedure: An Applied Photophysics stopped-flow instrument was used for assaying CA-catalysed CO2 hydration activity. […] Six traces of the initial 5 − 10% of the reaction were used to determine the initial velocity. The uncatalysed rates were determined in the same manner and subtracted from the total observed rates. A stock solution of inhibitor (0.1 mM) was prepared in distilled-deionized water, and dilutions of up to 0.01 nM were prepared thereafter with distilled-deionized water. Inhibitor (I) and enzyme (E) solutions were preincubated together for 15 min at RT prior to the assay to allow formation of the E − I complex. Inhibition constants were obtained by using the Cheng-Prusoff equation and nonlinear least squares methods (with PRISM 3) and are presented as the means from at least three different determinations. Kinetic constants were obtained using Lineweaver-Burke plots as reported earlier.
On to `Nc1ccc(S(N)(=O)=O)cc1` [compound 2], for which the Ki worked out at 409 nM.

The experiment is the same for the next values; noted with them: read-out: Ki SauBCA.
For `CCN[C@H]1CN(CCCOC)S(=O)(=O)c2sc(S(N)(=O)=O)cc21` [BRZ, brinzolamide], the Ki stood at 815 nM.

With `Cc1ccc(-c2cc(C(F)(F)F)nn2-c2ccc(S(N)(=O)=O)cc2)cc1` [CLX, celecoxib], the Ki stood at 871 nM.

Consider `CC(=O)/N=c1/sc(S(N)(=O)=O)nn1C` [MZA, methazolamide], for which the Ki stood at 863 nM.

For the compound `CC1(C)O[C@@H]2[C@@H](CO[C@@]3(COS(N)(=O)=O)OC(C)(C)O[C@@H]23)O1` [TPM], the Ki turned out to be 466 nM.

On to `Cc1onc(-c2ccccc2)c1-c1ccc(S(N)(=O)=O)cc1` [VLX], for which the Ki worked out at 509 nM.

Take `NS(=O)(=O)Cc1noc2ccccc12` [ZNS, zonisamide]: the Ki worked out at 4550 nM.

With `Nc1nccc(Nc2ccc(S(N)(=O)=O)cc2)n1` [compound 19], the Ki is 909 nM.

Still in this experiment, the particulars now being: recombinant SauBCA, stopped-flow CO2 hydration, mean from three assays, errors ±5–10%; read-out: Ki SauBCA.
As for `NS(=O)(=O)NCCNc1nonc1C(=NO)Nc1ccc(F)c(Br)c1` [EPA, epacadostat], the Ki was 538 nM.

On to `O=C1NS(=O)(=O)c2ccccc21` [SAC], for which the Ki amounted to 667 nM.

Regarding `NS(=O)(=O)c1cccc(S(N)(=O)=O)c1` [compound 3], the Ki turned out to be 95 nM.

For the compound `Cc1ccc(S(N)(=O)=O)cc1` [compound 4], the Ki came to 83 nM.

On to `NCc1ccc(S(N)(=O)=O)cc1` [compound 5], for which the Ki is 193 nM.

For `Nc1ccc(S(N)(=O)=O)cc1Cl` [compound 8], the Ki was 95 nM.

As to `Nc1ccc(S(N)(=O)=O)cc1Br` [compound 9], the Ki amounted to 75 nM.

As to `NS(=O)(=O)c1cc(Cl)cc(Cl)c1O` [compound 10], the Ki worked out at 202 nM.

For the compound `Nc1nnc(S(N)(=O)=O)s1` [compound 13], the Ki came to 417 nM.

Take `NS(=O)(=O)c1ccc(CO)cc1` [compound 16]: the Ki was 603 nM.

As for `Nc1ccc(S(=O)(=O)Nc2nnc(S(N)(=O)=O)s2)cc1` [compound 20], the Ki turned out to be 92 nM.

For the compound `NS(=O)(=O)c1ccc(CCNS(=O)(=O)c2ccc([N+](=O)[O-])cc2CO)cc1` [compound 21], the Ki amounted to 85 nM.

Turning to `Nc1ccc(S(=O)(=O)Nc2ccc(S(N)(=O)=O)cc2)cc1` [compound 22], the Ki was 83 nM.

As for `Nc1ccc(S(=O)(=O)NCc2ccc(S(N)(=O)=O)cc2)cc1` [compound 23], the Ki is 92 nM.

Regarding `Nc1ccc(S(=O)(=O)NCCc2ccc(S(N)(=O)=O)cc2)cc1` [compound 24], the Ki came out at 96 nM.
